Laboratory results taken from PubChem BioAssay (NCI).
Several values for one entry are separate records, joined by “and”; a condition that tells them apart may be missing. Identical values can stand only once.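 How tested: cells in 96-well plates exposed to compound for 48 hours at five concentrations. Here, GI50 denotes the concentration required for 50% inhibition of growth. The concentration for full growth arrest is given as TGI.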

test system: MDA-MB-435; experiment: NCI anticancer screen, dose series, 48 h

SMILES | TGI | GI50
COc1ccc(C(=O)c2cc(OC)c(OC)c(OC)c2)cc1OC | 1.89 µM | –
CCNC(=O)/C(=C/c1ccc(OC)cc1)c1cc(OC)c(OC)c(OC)c1 | > 20.5 µM | –
CCCc1cc(=O)n2c(C(=O)Nc3ccc(Cl)cc3C)c(C(=O)Nc3ccc(F)cc3)sc2n1 | > 150 µM | 20.9 µM
COc1ccc(-c2ccc3c(N4CCOC[C@@H]4C)nc(N4CCOC[C@@H]4C)nc3n2)cc1CO | 0.0557 µM and 0.263 µM | 0.00531 µM and 0.0227 µM
N[C@H](CCC(=O)N[C@@H](Cc1c[nH]c2ccccc12)C(=O)O)C(=O)O | > 100 µM | > 100 µM
COc1ccc(-c2nc(-c3cc(OC)cc(OC)c3)[nH]c2-c2ccc(OC)cc2)cc1 | > 100 µM | 5.98 µM
CN(C)CCNCCN | > 100 µM | –
COC(=O)c1cc2c(o1)-c1nccc3c1c(nc1ccccc13)C2=O | 1.81 µM | 0.538 µM
Nc1ccccc1O.O.O=C(O)C1[O][Sb][O]C1C(=O)O (stereo not drawn) | 30.8 µM | 16.5 µM
O=C(c1ccco1)c1c(C(F)(F)F)n([O-])c2ccc(C(F)(F)F)cc2[n+]1=O | 2.56 µM | 1.16 µM
OC(c1cc(-c2ccc(C(F)(F)F)cc2)nc(C(F)(F)F)c1)C1CCCCN1 (stereo not drawn) | 3.05 µM and 3.42 µM | 1.67 µM
CC(C)CC(C/C=C1/CC(CO)(COC(=O)C(C)(C)C)OC1=O)CC(C)C (stereo not drawn) | 18.3 µM and 15 µM | –
O=C(Nc1cc(Nc2ncccc2-c2ncnc3nc[nH]c23)ccc1F)c1cc(C(F)(F)F)cc(C(F)(F)F)c1 | > 10 µM | 0.996 µM
CC1(C)CN=C(NN=C(/C=C/c2ccc(C(F)(F)F)cc2)/C=C/c2ccc(C(F)(F)F)cc2)NC1 | 3 µM | 1.59 µM

test system: TK-10 renal; experiment: NCI anticancer screen, dose series, 48 h

SMILES | GI50 | TGI
COC(=O)C1=COC(C)C2CN3CCc4c([nH]c5ccccc45)C3CC12 (stereo not drawn) | 27.7 µM and > 100 µM | 88.5 µM and > 100 µM
O=C(NCc1ccc(Cn2c(=O)sn(-c3ccccc3)c2=O)cc1)OCc1ccc2cccc(O)c2n1 | 0.571 µM | 1.62 µM
COC(c1ccc(C(C)(C)C)cc1)(c1ccc(C(C)(C)C)cc1)c1ccc(C(C)(C)C)cc1 | – | > 100 µM
CC(C)c1[nH]nc2c1N=C(c1ccccc1Cl)c1cc([N+](=O)[O-])ccc1N2 | 7.31 µM | > 23.1 µM
Nc1cc2c(cc1Br)[nH]c(=O)c1ccccc12 | 4.27 µM | 32.7 µM
COc1ccc(-c2nccn2-c2ccc(OC)cc2)cc1 | 23 µM | > 75.9 µM
O=C(/C=C/c1ccccc1)c1ccccc1 | – | > 10 µM
CC(C)[C@H](O)C(=O)N[C@@H](C)C(=O)N[C@@H]1C(=O)N(C)CCc2ccccc21 | > 100 µM | > 100 µM
C=CC(=O)N1CN(C(=O)C=C)CN(C(=O)C=C)C1 | 2.36 µM | 5.7 µM
COc1ccc(-c2cnnn2-c2nonc2-n2cccc2)cc1 | 2.12 µM | > 61 µM
C#CCOc1cccc(Nc2ncnc3c(NC(=O)C=C)cccc23)c1 | 19.2 µM | 69.2 µM
CO[C@H]1Nc2c(ccc(C)c2O)C(=O)N2C=C(/C=C/C(N)=O)C[C@@H]12 | – | 7.95 µM
O=C(/C(=C\c1c(-c2ccccc2)[nH]c2ccccc12)S(=O)(=O)c1ccccc1)c1ccccc1 | > 100 µM | > 100 µM
COc1ccc(C(=O)c2cc(OC)c(OC)c(OC)c2)cc1OC | – | > 100 µM
CCNC(=O)/C(=C/c1ccc(OC)cc1)c1cc(OC)c(OC)c(OC)c1 | – | > 69.7 µM
CCCc1cc(=O)n2c(C(=O)Nc3ccc(Cl)cc3C)c(C(=O)Nc3ccc(F)cc3)sc2n1 | 12.3 µM | 39.3 µM
COc1ccc(-c2ccc3c(N4CCOC[C@@H]4C)nc(N4CCOC[C@@H]4C)nc3n2)cc1CO | 0.00484 µM and 0.0147 µM | 0.237 µM and 0.212 µM
N[C@H](CCC(=O)N[C@@H](Cc1c[nH]c2ccccc12)C(=O)O)C(=O)O | > 100 µM | > 100 µM
COc1ccc(-c2nc(-c3cc(OC)cc(OC)c3)[nH]c2-c2ccc(OC)cc2)cc1 | 53.1 µM | > 100 µM
CN(C)CCNCCN | – | > 100 µM
COC(=O)c1cc2c(o1)-c1nccc3c1c(nc1ccccc13)C2=O | 22.9 µM | 52.2 µM
Nc1ccccc1O.O.O=C(O)C1[O][Sb][O]C1C(=O)O (stereo not drawn) | 18 µM | 32.4 µM
O=C(c1ccco1)c1c(C(F)(F)F)n([O-])c2ccc(C(F)(F)F)cc2[n+]1=O | 0.926 µM | 2.3 µM
OC(c1cc(-c2ccc(C(F)(F)F)cc2)nc(C(F)(F)F)c1)C1CCCCN1 (stereo not drawn) | 1.72 µM and 2.16 µM | 3.23 µM and 4.95 µM
CC(C)CC(C/C=C1/CC(CO)(COC(=O)C(C)(C)C)OC1=O)CC(C)C (stereo not drawn) | 1.58 µM and 0.543 µM | 15.7 µM and 1.97 µM
O=C(Nc1cc(Nc2ncccc2-c2ncnc3nc[nH]c23)ccc1F)c1cc(C(F)(F)F)cc(C(F)(F)F)c1 | 3.75 µM | > 10 µM
CC1(C)CN=C(NN=C(/C=C/c2ccc(C(F)(F)F)cc2)/C=C/c2ccc(C(F)(F)F)cc2)NC1 | 1.91 µM | 3.37 µM

test system: NCI/ADR-RES ovarian; experiment: NCI anticancer screen, dose series, 48 h

SMILES | GI50 | TGI
COC(=O)C1=COC(C)C2CN3CCc4c([nH]c5ccccc45)C3CC12 (stereo not drawn) | 22.6 µM and > 100 µM | > 100 µM
O=C(NCc1ccc(Cn2c(=O)sn(-c3ccccc3)c2=O)cc1)OCc1ccc2cccc(O)c2n1 | 1.7 µM | 8.87 µM
COC(c1ccc(C(C)(C)C)cc1)(c1ccc(C(C)(C)C)cc1)c1ccc(C(C)(C)C)cc1 | – | > 100 µM
CC(C)c1[nH]nc2c1N=C(c1ccccc1Cl)c1cc([N+](=O)[O-])ccc1N2 | 6.37 µM | > 25 µM
Nc1cc2c(cc1Br)[nH]c(=O)c1ccccc12 | 9.25 µM | 35.1 µM
COc1ccc(-c2nccn2-c2ccc(OC)cc2)cc1 | 20.5 µM | 49.4 µM
O=C(/C=C/c1ccccc1)c1ccccc1 | – | > 10 µM
CC(C)[C@H](O)C(=O)N[C@@H](C)C(=O)N[C@@H]1C(=O)N(C)CCc2ccccc21 | > 100 µM | > 100 µM
C=CC(=O)N1CN(C(=O)C=C)CN(C(=O)C=C)C1 | 6.81 µM | > 100 µM
COc1ccc(-c2cnnn2-c2nonc2-n2cccc2)cc1 | 0.102 µM | 0.67 µM
C#CCOc1cccc(Nc2ncnc3c(NC(=O)C=C)cccc23)c1 | 19.8 µM | 98.1 µM
CO[C@H]1Nc2c(ccc(C)c2O)C(=O)N2C=C(/C=C/C(N)=O)C[C@@H]12 | – | 0.085 µM
O=C(/C(=C\c1c(-c2ccccc2)[nH]c2ccccc12)S(=O)(=O)c1ccccc1)c1ccccc1 | > 100 µM | > 100 µM
COc1ccc(C(=O)c2cc(OC)c(OC)c(OC)c2)cc1OC | – | > 100 µM
CCNC(=O)/C(=C/c1ccc(OC)cc1)c1cc(OC)c(OC)c(OC)c1 | – | > 28 µM
CCCc1cc(=O)n2c(C(=O)Nc3ccc(Cl)cc3C)c(C(=O)Nc3ccc(F)cc3)sc2n1 | 10.6 µM | 59.7 µM
COc1ccc(-c2ccc3c(N4CCOC[C@@H]4C)nc(N4CCOC[C@@H]4C)nc3n2)cc1CO | 0.013 µM and 0.0584 µM | –
N[C@H](CCC(=O)N[C@@H](Cc1c[nH]c2ccccc12)C(=O)O)C(=O)O | > 100 µM | > 100 µM
COc1ccc(-c2nc(-c3cc(OC)cc(OC)c3)[nH]c2-c2ccc(OC)cc2)cc1 | 9.76 µM | > 100 µM
CN(C)CCNCCN | – | > 100 µM
COC(=O)c1cc2c(o1)-c1nccc3c1c(nc1ccccc13)C2=O | 2.11 µM | 5.68 µM
Nc1ccccc1O.O.O=C(O)C1[O][Sb][O]C1C(=O)O (stereo not drawn) | 28.6 µM | > 87.2 µM
O=C(c1ccco1)c1c(C(F)(F)F)n([O-])c2ccc(C(F)(F)F)cc2[n+]1=O | 0.257 µM | 0.939 µM
OC(c1cc(-c2ccc(C(F)(F)F)cc2)nc(C(F)(F)F)c1)C1CCCCN1 (stereo not drawn) | 1.65 µM | 3.1 µM and 5.99 µM
CC(C)CC(C/C=C1/CC(CO)(COC(=O)C(C)(C)C)OC1=O)CC(C)C (stereo not drawn) | – | 35.3 µM and 29.7 µM
O=C(Nc1cc(Nc2ncccc2-c2ncnc3nc[nH]c23)ccc1F)c1cc(C(F)(F)F)cc(C(F)(F)F)c1 | 2.08 µM | 7.32 µM
CC1(C)CN=C(NN=C(/C=C/c2ccc(C(F)(F)F)cc2)/C=C/c2ccc(C(F)(F)F)cc2)NC1 | 1.4 µM | 3.03 µM
